Experimental data: US20090286866A1, “Double compartment skincare products comprising avermectin/milbemycin compounds” (GALDERMA S.A., priority 2006, published 2009)

Tests used:
[1] = Maximum solubility of ivermectin in various excipients; format: physicochemical; conditions: room temperature
Procedure: Study of the maximum solubility of ivermectin at T=1 hour at room temperature in various excipients.

[2] = Comparative study of the chemical stability of ivermectin in various excipients; format: physicochemical
Excerpt: Comparative study of the chemical stability of ivermectin in various excipients.

## ivermectin
[1]; in Alkyl benzoate, T=1 hour
  Maximum solubility: 1.60 % (m/m)
[1]; in Capric/caprylic triglycerides, T=1 hour
  Maximum solubility: 1.70 % (m/m)
[1]; in Diisopropyl adipate, T=1 hour
  Maximum solubility: 10.40 % (m/m)
[1]; in Dimethyl isosorbide, T=1 hour
  Maximum solubility: 35.20 % (m/m)
[1]; in Ethanol rectapur, T=1 hour
  Maximum solubility: 14.47 % (m/m)
[1]; in Macrogol 15 hydroxystearate, T=1 hour
  Maximum solubility: 10.60 % (m/m)
[1]; in N-Methyl-2-pyrrolidone, T=1 hour
  Maximum solubility: 58.13 % (m/m)
[1]; in Octyl dodecanol, T=1 hour
  Maximum solubility: 2.50 % (m/m)
[1]; in Oleyl alcohol, T=1 hour
  Maximum solubility: 3.48 % (m/m)
[1]; in PEG 400, T=1 hour
  Maximum solubility: 9.14 % (m/m)
[1]; in PPG 15 stearyl ether, T=1 hour
  Maximum solubility: 3.30 % (m/m)
[1]; in Phenoxyethanol, T=1 hour
  Maximum solubility: 15.70 % (m/m)
[1]; in Poloxamer 124, T=1 hour
  Maximum solubility: 7.50 % (m/m)
[1]; in Polysorbate 80, T=1 hour
  Maximum solubility: 10.31 % (m/m)
[1]; in Propylene glycol (PG), T=1 hour
  Maximum solubility: 21.83 % (m/m)
[1]; in Triacetin, T=1 hour
  Maximum solubility: 7.22 % (m/m)
[2]; in Benzyl alcohol, 25° C.
  Amount after storage at 25° C. for 1 month: 99.01%
[2]; in Benzyl alcohol, 40° C.
  Amount after storage at 40° C. for 1 month: 98.62%
[2]; in Benzyl alcohol, T0
  Amount at T0: 98.72%
[2]; in Diisopropyl adipate, 25° C.
  Amount after storage at 25° C. for 1 month: 97.19%
[2]; in Diisopropyl adipate, 40° C.
  Amount after storage at 40° C. for 1 month: 96.70%
[2]; in Diisopropyl adipate, T0
  Amount at T0: 102.5%
[2]; in Macrogol 15-hydroxystearate, 25° C.
  Amount after storage at 25° C. for 1 month: 95.32%
[2]; in Macrogol 15-hydroxystearate, 40° C.
  Amount after storage at 40° C. for 1 month: 71.88%
[2]; in Macrogol 15-hydroxystearate, T0
  Amount at T0: 98.76%
[2]; in PPG 15-stearyl ether, 25° C.
  Amount after storage at 25° C. for 1 month: 98.61%
[2]; in PPG 15-stearyl ether, 40° C.
  Amount after storage at 40° C. for 1 month: 98.07%
[2]; in PPG 15-stearyl ether, T0
  Amount at T0: 102.48%
[2]; in Phenoxyethanol, 25° C.
  Amount after storage at 25° C. for 1 month: 97.77%
[2]; in Phenoxyethanol, 40° C.
  Amount after storage at 40° C. for 1 month: 98.56%
[2]; in Phenoxyethanol, T0
  Amount at T0: 99.42%
[2]; in Poloxamer 124, 25° C.
  Amount after storage at 25° C. for 1 month: 98.19%
[2]; in Poloxamer 124, 40° C.
  Amount after storage at 40° C. for 1 month: 92.34%
[2]; in Poloxamer 124, T0
  Amount at T0: 98.09%
[2]; in diisopropyl adipate, benzyl alcohol, PPG-15 stearyl ether and phenoxyethanol, at room temperature or at 40° C.
  Stability of ivermectin (in words): good stability
[2]; in macrogol 15-hydroxystearate and in poloxamer, in particular at 40° C.
  Stability of ivermectin (in words): less stable
